Several values for one entry are separate records, joined by “and”; a condition that tells them apart may be missing. Equal values may be shown once. Blank lines part the entries; values can stand above or below the molecule they belong to.
Experiments:
Pancreatic RNAse = biological target: T1, Pancreatic RNAse (Bos taurus, UniProt P61823); test: Mechano-chemical effect of a specific ligand on cross-linked protein film (isometric tension); assay type: biochemical; settings: ligand 5-10 times binding constant
T1 construct: purchased Sigma, St. Louis
T1 sequence (P61823 27-150): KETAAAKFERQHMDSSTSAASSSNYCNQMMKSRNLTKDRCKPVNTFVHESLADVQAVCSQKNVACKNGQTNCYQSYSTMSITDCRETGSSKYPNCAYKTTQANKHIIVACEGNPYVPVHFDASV

[1] = biological target: T2, Alkaline phosphatase (AP) from bovine intestinal mucosa (Bos taurus, UniProt P19111); test: Effect of AgNO3 added to AP solution on AP activity; assay type: biochemical; settings: 10^−4 M AgNO3 added to the AP solution
T2 construct: purchased Sigma Chemical Co., St. Louis, Mo; host or cells: bovine intestinal mucosa
Method: AP activity was measured immediately after spot extraction by adding 5-20 μL of the extract solution to 1.0 mL of the p-NPP solution in the TRIS/HCl buffer prepared from Sigma Fast tablets. Activity was measured in a room with a thermostat, with a temperature of 25±1° C. […] The specific activity was calculated using protein concentration measured gravimetrically, as described above in the mass measurement section.
It is believed, therefore, that the inactivation of AP at high voltages and currents occur outside the capillary as a result of reaction with the products of corona discharge or as the result of impact with the target electrode. Impact energy should grow with an increase of the potential, causing protein distraction on impact. This can explain the increase in AP inactivation with increasing voltage and current. The generation of corona products in electrospray deposition at I>200-300 nA was noticeable from a characteristic smell of ozone in the electrospray chamber. […] The capillary with the external electrode supports corona discharge more readily than the capillary with the internal electrode, which explains why AP is inactivated at lower currents and to a higher extent when electrospray deposited from the capillary with the external electrode.

Pancreatic Trypsin = test: Mechano-chemical effect of a specific ligand on cross-linked protein film (isometric tension); assay type: biochemical; settings: ligand concentration 5-10 times binding constant; for Effect in Dried Sample % (relative change in isometric tension in protein film induced by binding of specific ligand): conventional drying on glass
Avidin = Avidin (Gallus gallus, UniProt P02701); test: as above; assay type: biochemical; settings: ligand 5-10 times binding constant
α-Lactalburnin = test: as above; assay type: biochemical
Text: Using protein as an example of a biomolecule for electrospray deposition, the structure of the protein film and the functional properties of the protein molecules in the film is dependent on the path of flight of the electrospray, speed of the charged particles controlled by voltage, sign of the charges, humidity and temperature under which the protein molecules are electrosprayed, protein concentration in solution, and presence of stabilizers. At short distances, e.g., about 15 mm between capillary and substrate, or when the electrospray takes place in a humid atmosphere (relative humidity of more than 70-80%), charged microdroplets from the electrospray can reach the surface without decay or the production of dry ions, i.e., in the wet electrospray regime. The sample films obtained after evaporation of the deposited microdroplets on the substrate have much in common with the sample protein films obtained conventionally by applying a protein solution directly to the substrate and allowing the proteins to dry.

[2] = biological target: T3, 3-phosphoglycerate kinase (yeast) (Saccharomyces cerevisiae, UniProt P00560); test: as above; assay type: biochemical; settings: cross-linked 3-phosphoglycerate kinase (yeast) film, ligand 5-10 times binding constant
T3 sequence (P00560 1-416): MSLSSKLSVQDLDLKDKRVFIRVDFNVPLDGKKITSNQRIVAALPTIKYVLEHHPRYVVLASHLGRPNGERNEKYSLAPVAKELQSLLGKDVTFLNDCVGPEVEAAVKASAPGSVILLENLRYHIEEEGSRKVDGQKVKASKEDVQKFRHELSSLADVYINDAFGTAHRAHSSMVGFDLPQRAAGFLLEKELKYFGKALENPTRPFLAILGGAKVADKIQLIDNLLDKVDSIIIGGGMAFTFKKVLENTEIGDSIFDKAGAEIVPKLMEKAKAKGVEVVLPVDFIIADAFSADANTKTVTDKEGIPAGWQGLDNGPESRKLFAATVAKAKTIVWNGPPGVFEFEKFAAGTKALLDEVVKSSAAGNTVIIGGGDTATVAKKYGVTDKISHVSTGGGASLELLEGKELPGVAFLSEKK

Lysozyme (egg) = Lysozyme (egg) (Gallus gallus, UniProt P00698); test: as above; assay type: biochemical; settings: ligand 5-10 times binding constant
[3] = biological target: T4, Alcohol dehydrogenase (horse liver) (Equus caballus, UniProt P00327); test: as above; assay type: biochemical; settings: 0.4 mM NADH solution
T4 construct: purchased Sigma, St. Louis, Mo; host or cells: horse liver
Method: A film of horse liver alcohol dehydrogenase (LADH, Sigma, St. Louis, Mo., shown in FIG. 14B, was fabricated on an Al electrode covered with a sublayer consisting of 95% of the sodium salt of alginic acid (Sigma, St. Louis, Mo.) and 5 of Triton X-100 detergent. The LADH solution containing 5 mg/ml of protein and 1.5 mg/ml of sucrose was electrosprayed in dry air at +4.3 kV and 30-40 nA from a capillary placed about 15 mm over the substrate. The deposited film was cross-linked for 8 minutes with the vapor from 25% glutaraldehyde at 28° C. The samples were then tested for their ability to change isometric tension in response to 0.4 mM NADH solution.

[4] = test system: goat antibody against human serum albumin; test: microELISA of electrospray-deposited protein antigens on IMMOBILON-P filter; assay type: binding; settings: primary antibody against human serum albumin 1:1000, AP-labeled secondary antibody 1:3000
Method: Different antigens (serum albumins from human and ox, ovalbumin and human hemoglobin) were electrospray deposited onto a wetted IMMOBILON-P membrane filter through a mask having multiple holes. After each deposition of a different protein antigen, the mask was shifted by 1.1 mm. After depositing all four protein antigens, the membrane filter was dried for 15 min. at 37° C. and blocked by soaking in a PBS solution (10 mM sodium phosphate buffer, pH 7.2, 0.9% NaCl) with 0.05% Tween-20, 1% chicken albumin (ovalbumin). […] The filter was then washed twice with PBS buffer for 10 seconds and reacted with a solution of anti-goat IgG antibodies labeled with alkaline phosphatase (Sigma, diluted 1:3000).

peroxidase = test: Enzyme activity of electrospray-deposited peroxidase on nitrocellulose filter (DAB substrate); assay type: biochemical; settings: deposited through polypropylene mask onto wetted nitrocellulose filter; DAB staining
Text: The electrospray conditions used in this example were similar to those used in Example 1.
After electrospray, the pattern of deposited enzyme was not visible on the membrane filter surface. However, the patterns of the enzymes did become visible after soaking the peroxidase-deposited membrane filter in a solution of a standard peroxidase substrate (3,3′-diaminobenzidine, abbreviated DAB, and obtained from Sigma, St. Louis, Mo.), resulting in the formation of an insoluble brown colored product of the peroxidase reaction.

Concanavalin A = Concanavalin A (Canavalia ensiformis, UniProt P02866); settings: cross-linked Concanavalin A film, ligand 5-10 times binding constant
Method: Protein films were prepared by electrospray for use in a mechanochemical method of assay. A 2 mg/ml concanavalin A (Sigma, St. Louis, Mo.) solution, containing 0.5 mg/ml of glycerol was electrosprayed through a rectangular single hole onto an Al electrode covered with a polymeric conducting sublayer of about 2-5 microns thick. The sublayer was prepared by drying a thin layer of water solution of a mixture of three compounds (polyethylene glycol-8000, poly(anetholesulfonic acid)—Na-salt and Triton X-100), 3%. each. The protein solution was electrosprayed from a capillary tip placed 20 mm over the substrate, with positive voltage of 4.0 kV at the capillary and a current of 33 nA. Deposition was performed in dry air for 10 minutes. After electrospray deposition, the sample was cross-linked for 15 minutes in a vapor of 25% glutaraldehyde (Aldrich Chemical Company, Milwaukee, Wis.) at 25° C. Upon applying a droplet of water on the substrate surface, the sample was floated off the substrate within 5 seconds.

Sequence of Lysozyme (egg) (P00698 19-147): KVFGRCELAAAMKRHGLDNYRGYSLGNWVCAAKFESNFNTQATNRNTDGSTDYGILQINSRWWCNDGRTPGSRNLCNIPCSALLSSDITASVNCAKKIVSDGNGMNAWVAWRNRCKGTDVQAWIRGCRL
Sequence of Avidin (P02701 25-152, species assumed): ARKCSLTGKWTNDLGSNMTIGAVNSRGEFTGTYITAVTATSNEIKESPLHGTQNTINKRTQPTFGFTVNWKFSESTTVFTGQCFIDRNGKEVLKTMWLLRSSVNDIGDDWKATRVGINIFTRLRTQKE
T4 sequence (P00327 whole entry): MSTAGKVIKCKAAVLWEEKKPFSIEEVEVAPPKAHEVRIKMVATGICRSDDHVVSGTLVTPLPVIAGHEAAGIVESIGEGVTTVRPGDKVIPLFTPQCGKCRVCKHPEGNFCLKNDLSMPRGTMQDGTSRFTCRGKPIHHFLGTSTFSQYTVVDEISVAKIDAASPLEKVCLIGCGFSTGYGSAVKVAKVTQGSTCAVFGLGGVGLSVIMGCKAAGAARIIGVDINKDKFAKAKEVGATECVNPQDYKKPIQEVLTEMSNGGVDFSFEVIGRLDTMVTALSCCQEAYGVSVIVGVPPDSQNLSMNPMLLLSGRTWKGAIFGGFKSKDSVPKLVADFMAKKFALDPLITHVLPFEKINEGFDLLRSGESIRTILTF
T2 sequence (P19111 20-506): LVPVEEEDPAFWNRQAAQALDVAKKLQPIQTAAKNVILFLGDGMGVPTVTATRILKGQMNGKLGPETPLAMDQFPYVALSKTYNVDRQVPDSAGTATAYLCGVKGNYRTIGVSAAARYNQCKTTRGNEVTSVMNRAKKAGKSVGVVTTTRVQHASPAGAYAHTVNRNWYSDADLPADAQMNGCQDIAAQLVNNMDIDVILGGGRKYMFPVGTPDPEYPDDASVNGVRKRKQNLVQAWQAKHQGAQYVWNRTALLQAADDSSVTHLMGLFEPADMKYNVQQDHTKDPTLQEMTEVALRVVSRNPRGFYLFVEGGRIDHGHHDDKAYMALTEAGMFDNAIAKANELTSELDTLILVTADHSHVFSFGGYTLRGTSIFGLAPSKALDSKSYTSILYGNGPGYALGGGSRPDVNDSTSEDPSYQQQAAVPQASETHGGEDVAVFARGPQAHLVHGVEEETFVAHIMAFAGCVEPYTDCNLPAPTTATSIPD

- Effect in Dried Sample % (relative change in isometric tension) (Pancreatic RNAse; conventional drying on glass): +4.0%
- Effect in Electrospray Deposit Sample % (relative change in isometric tension) (Pancreatic RNAse; electrospray deposited): −3.4%
Molecule: Nc1ccn([C@@H]2O[C@H](CO)[C@@H](OP(=O)(O)O)[C@H]2O)c(=O)n1 [3′-Cytidine monophosphate]

Molecule: O=[N+]([O-])[O-].[Ag+] [AgNO3]
- inhibition of AP [1]: does not result in any inhibition

- Effect in Dried Sample % (relative change in isometric tension in protein film induced by binding of specific ligand) (Pancreatic Trypsin): +23%
Molecule: CCOC(=O)[C@H](CCCN=C(N)N)NC(=O)c1ccccc1 [BAEE]

Molecule: O=C(O)CCCC[C@@H]1SC[C@@H]2NC(=O)N[C@@H]21 [Biotin]
- Effect in Dried Sample % (relative change in isometric tension) (Avidin; conventional drying on glass): −51%
- Effect in Electrospray Deposit Sample % (relative change in isometric tension) (Avidin; electrospray deposited): −41% and −48%

Molecule: [Ca+2] [Ca^+2]
- Effect in Dried Sample % (relative change in isometric tension) (α-Lactalburnin; cross-linked α-Lactalburnin film, conventional drying on glass, ligand 5-10 times binding constant): +240%
- Effect in Electrospray Deposit Sample % (relative change in isometric tension) (α-Lactalburnin; cross-linked α-Lactalburnin film, electrospray deposited, ligand 5-10 times binding constant): +370%
- difference in mechanochemical response to ligand between wet electrospray deposited and conventionally prepared films (α-Lactalburnin; α-lactalbumin films, wet electrospray deposition onto glass covered with conducting SnO2 layer): No notable difference

- Effect in Dried Sample % (relative change in isometric tension) ([2]; conventional drying on glass): +13%
- Effect in Electrospray Deposit Sample % (relative change in isometric tension) ([2]; electrospray deposited): +16%
Molecule: Nc1ncnc2c1ncn2[C@@H]1O[C@H](COP(=O)(O)OP(=O)([O-])OP(=O)([O-])O)[C@@H](O)[C@H]1O.[Mg+2] [Mg-ATP]

- Effect in Dried Sample % (relative change in isometric tension) (Lysozyme (egg); conventional drying on glass): −7.7% and −8.7%
- Effect in Electrospray Deposit Sample % (relative change in isometric tension) (Lysozyme (egg); electrospray deposited): −6.3% and −3.5%
Molecule: CC(=O)N[C@H]1C(O)O[C@H](CO)[C@@H](O)[C@@H]1O (stereo partly drawn) [N-acetyl-D-glucosamine]

- ligand-induced increase in isometric tension ([3]; conventionally prepared LADH film): 6-7%
- ligand-induced increase in isometric tension ([3]; electrospray deposited LADH film, glutaraldehyde cross-linked): 6-7%
Molecule: NC(=O)C1=CN([C@@H]2O[C@H](COP(=O)(O)OP(=O)(O)OC[C@H]3O[C@@H](n4cnc5c(N)ncnc54)[C@H](O)[C@@H]3O)[C@@H](O)[C@H]2O)C=CC1 [NADH]

- Effect in Dried Sample % (relative change in isometric tension in protein film induced by binding of specific ligand) (Pancreatic Trypsin): +69%
- Effect in Electrospray Deposit Sample % (relative change in isometric tension in protein film induced by binding of specific ligand) (Pancreatic Trypsin; electrospray deposited): +72; +72%
Molecule: Nc1ccc2cc3ccc(N)cc3nc2c1 [Proflavin]

Molecule: bovine albumin: serum albumin from ox, antigen electrospray deposited onto filter
- spot intensity in microELISA [4]: less intensively colored

Molecule: human hemoglobin: protein antigen electrospray deposited onto IMMOBILON-P filter
- spot intensity in microELISA [4]: less intensively colored

Molecule: peroxidase: commercially available peroxidase (Sigma), electrospray deposited; horseradish peroxidase per b108
- enzymatic activity after electrospray deposition (peroxidase): retained

Molecule: α-D-mannopyranoside
- Effect in Dried Sample % (relative change in isometric tension) (Concanavalin A; conventional drying on glass): +11%
- Effect in Electrospray Deposit Sample % (relative change in isometric tension) (Concanavalin A; electrospray deposited): +4%

B1: ovalbumin: protein antigen electrospray deposited onto IMMOBILON-P filter (protein, UniProt P01012 2-386, looked up)
Ovalbumin: GSIGAASMEFCFDVFKELKVHHANENIFYCPIAIMSALAMVYLGAKDSTRTQINKVVRFDKLPGFGDSIEAQCGTSVNVHSSLRDILNQITKPNDVYSFSLASRLYAEERYPILPEYLQCVKELYRGGLEPINFQTAADQARELINSWVESQTNGIIRNVLQPSSVDSQTAMVLVNAIVFKGLWEKAFKDEDTQAMPFRVTEQESKPVQMMYQIGLFRVASMASEKMKILELPFASGTMSMLVLLPDEVSGLEQLESIINFEKLTEWTSSNVMEERKIKVYLPRMKMEEKYNLTSVLMAMGITDVFSSSANLSGISSAESLKISQAVHAAHAEINEAGREVVGSAEAGVDAASVSEEFRADHPFLFCIKHIATNAVLFFGRCVSP
- spot intensity in microELISA [4]: not visible at all

From patent publication US6350609B1, “Electrospraying for mass fabrication of chips and libraries” (New York University, priority 1997, dated 2002)
